Results on 1 molecule are retold here after PMC4741798, “Imaging of carbonic anhydrase IX with an ^111In-labeled dual-motif inhibitor” (Oncotarget, 2015).

One may read the Kd as the constant that tells how readily two partners part at equilibrium.

Entries after “also recorded” stand apart in the source; their conditions may differ.

The target of one assay is T1, CAII (Homo sapiens, UniProt P00918).
T1 construct: purchased R&D Systems
The assay is described as follows: Fluorescence polarization for affinity comparison (saturation binding). The following applies: Fig. 4A. On the procedure:
(§1) Figure 4 Compound 8 had higher binding affinity to CAIX compared to CAII and CAXII Saturation binding curves for CAII, CAIX, and CAXII were generated. 5 nM of compound 8 was titrated by increasing concentrations of CAII, CAIX, and CAXII and the resultant fluorescence polarization (mP) was measured, with EC50 values calculated. […] The target in front of each value (CAII, CAIX, CAXII) is taken from the x-axis title of that panel.
(§2) Human recombinant CAII, CAIX, and CAXII were purchased from R&D systems (Minneapolis, MN). 5 nM of FITC-labeled 8 were mixed with serially diluted (from 1 μM to 19 fM) isoforms of the carbonic anhydrases in PBS within 384 well Small Volume™ LoBase Microplates (Greiner Bio-One, Frickenhausen Germany). The mixtures were incubated at room temperature for 1 h. Fluorescence polarization was measured using a Safire2™ plate reader (Tecan, Morrisville, NC), with 475 nm excitation and 530 nm emission wavelengths.
(In general: Polarisation of emitted light reports the rotation of a fluorescent probe.)

Another assay concerns the target T2, CAXII (Homo sapiens, UniProt O43570).
T2 construct: purchased R&D Systems
The assay is described as above. The note with it: Fig. 4C. The procedure:
as §1, §2

Assay [1] relates to CAIX-expressing SK-RC-52 cells. Nature of the assay: FACS analysis of cell binding. The format is cell-based. On the procedure: (§3) CAIX-positive SK-RC-52 and CAIX-negative BxPC3 cells were maintained in RPMI 1640 media supplemented with 10% FBS and 1 × penicillin-streptomycin in a 37°C humidified incubator. Cells were detached from the flask with trypsin and reconstituted in RPMI 1640 media supplemented with 1% FBS at a density of 1 × 10^6 cells per mL. FITC-labeled 8 was added to the cells at the indicated concentration and incubated at room temperature for 30 min. Cells were washed twice with the same media for staining and analyzed using the FACSCalibur (BD Bioscience, San Jose, CA) instrument.
(A flow cytometer gives signals particle by particle.)

Assay [2] concerns CAIX-negative BxPC3 cells. Nature of the assay: FACS analysis of cell binding. The note with it: 30 min room temperature. The format is cell-based. The procedure: as §3
The subject of assay [3] is CAIX-expressing SK-RC-52 cells. The assay is described as follows: Fluorescence microscopic analyses of labeled cells. The format is cell-based. The note with it: 100 nM of 8 for 1 h; BxPC3 as negative cells. On the procedure:
CAIX-positive SK-RC-52 and CAIX-negative BxPC3 cells were seeded on to 8-well chamber glass slides (Lab-Tek®IICC^2™, Nunc, Rochester NY) and incubated in RPMI 1640 media supplemented with 10% FBS and 1 × penicillin-streptomycin in a 37°C humidified incubator for 48 h. Cells were stained with 100 nM of FITC-labeled 8 for 1 h in the same growth media followed by washing twice with the same media. Cells were fixed with 10% formaldehyde (Sigma-Aldrich, Saint Louis, MO) and washed three times with PBS. Cells were treated with 20 nM DAPI (4′,6-diamidino-2-phenylindole) in PBS. The chambers were removed and the Vectashield mounting solution (Vector Laboratories, Inc., Burlingame, CA) was added to the sample. Fluorescence microscopic images were taken using the Nikon Eclipse 80i epifluorescence microscope (Nikon Instruments Inc., Melville, NY) and the images were processed by the Element software (Nikon Instruments Inc.).

A further assay has as its target CAIX. Set-up: method as in PMID 25698334. The following applies: reported value; cited from earlier work.

T2 sequence (O43570 25-354): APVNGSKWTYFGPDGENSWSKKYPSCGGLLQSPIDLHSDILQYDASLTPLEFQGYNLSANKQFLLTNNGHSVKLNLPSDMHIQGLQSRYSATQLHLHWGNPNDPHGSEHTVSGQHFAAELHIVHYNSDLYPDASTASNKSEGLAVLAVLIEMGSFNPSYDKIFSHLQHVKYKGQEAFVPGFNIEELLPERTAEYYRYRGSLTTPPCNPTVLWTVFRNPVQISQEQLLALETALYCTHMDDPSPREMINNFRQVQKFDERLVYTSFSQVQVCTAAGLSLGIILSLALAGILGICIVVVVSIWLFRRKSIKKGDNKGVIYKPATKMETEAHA

Regarding `CC(CCC(=O)N[C@@H](CC(=O)N[C@@H](CC(=O)N[C@@H](CCCCn1cc(CCCC(=O)Nc2nnc(S(N)(=O)=O)s2)nn1)C(=O)NCCOCCOCCNC(=S)Nc1ccc(-c2c3ccc(=O)cc-3oc3cc(O)ccc23)c(C(=O)O)c1)C(=O)O)C(=O)O)(c1ccc(O)cc1)c1ccc(O)cc1` [Compound 8], on CAII, the “binding affinity to cytosolic CAII (in words)” value was “poor binding affinity”. Moreover, the “affinity to CAXII relative to CAIX (in words)” value at CAXII is “about three-fold lower affinity”. The “lowest concentration with significant binding to cells (FACS)” value in assay [1] stood at 10 nM. Also, the “binding to cells by FACS (in words)” value was “bound specifically” in assay [1] (30 min room temperature) and “not to CAIX-negative BxPC3 cells” in assay [2]. Further, in assay [3], the “cell surface staining by fluorescence microscopy (in words)” value is “Only SK-RC-52 cells were stained with 8 on the surface of the cells; also recorded: bound to the cell surface of SK-RC-52”. Besides, the Kd on CAIX was 0.2 nM.
